Measured values published in US8754242B2, “Herbicides” (Syngenta Crop Protection LLC, priority 2007, dated 2014).

Assays:
Type in all cases: in vivo
Lolium perenne (LOLPE) [1] = test: Test Example 1 post-emergence herbicidal activity; conditions: rate 125 g/ha, evaluated 15 days later
In short: (§1)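 Once sown in standard soil, pots received an aqueous spray of the formulated active ingredient, either after one day or after ten days of controlled glasshouse growth. Plants then grew under optimum greenhouse conditions. Herbicidal effect was assessed visually 15 (post-emergence) or 20 (pre-emergence) days later, 100 meaning total plant damage.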

[2] = system: Alopecurus myosuroides (ALOMY); test: Test Example 1 post-emergence herbicidal activity; conditions: rate 125 g/ha, evaluated 15 days later
In short: as §1

Avena fatua (AVEFA) [3] = test: Test Example 1 post-emergence herbicidal activity; conditions: rate 125 g/ha, evaluated 15 days later
In short: as §1

Setaria faberi (SETFA) [4] = test: Test Example 1 post-emergence herbicidal activity; conditions: rate 125 g/ha, evaluated 15 days later
In short: as §1

[5] = system: Digitaria sanguinalis (DIGSA); test: Test Example 1 post-emergence herbicidal activity; conditions: rate 125 g/ha, evaluated 15 days later
In short: as §1

[6] = system: Echinochloa crus-galli (ECHCG); test: Test Example 1 post-emergence herbicidal activity; conditions: rate 125 g/ha, evaluated 15 days later
In short: as §1

wheat = test: Test Example 3 crop injury of T1 alone and with safeners; conditions: safener (if any) at 1:1, 2-3 leaf stage, assessed 14-21 days after application
Excerpt: (§2) The test compound T1 was applied at 100 and 200 g ai/ha, alone and in combination with a range of safeners as 1:1 mixtures (for example at 100 g+100 g; 200 g+200 g) to the test plants—wheat and maize—at the 2-3 leaf stage. A 4-way safener mixture (cloquintocet-mexyl, benoxacor, fluxofenim and compound A*) was also applied with the test compound so that each safener was used a 1:1 ratio (for example at 100+100+100+100+100 g ai/ha). Assessments were made at 14-21 days after application.

maize = test: as above; conditions: safener (if any) at 1:1, 2-3 leaf stage, assessed 14-21 days after application
Excerpt: as §2

Lolium perenne (LOLPE) [7] = test: Test Example 1 pre-emergence herbicidal activity; conditions: rate 250 g/ha, evaluated 20 days later
In short: as §1

[8] = system: Alopecurus myosuroides (ALOMY); test: Test Example 1 pre-emergence herbicidal activity; conditions: rate 250 g/ha, evaluated 20 days later
In short: as §1

Avena fatua (AVEFA) [9] = test: Test Example 1 pre-emergence herbicidal activity; conditions: rate 250 g/ha, evaluated 20 days later
In short: as §1

Setaria faberi (SETFA) [10] = test: Test Example 1 pre-emergence herbicidal activity; conditions: rate 250 g/ha, evaluated 20 days later
In short: as §1

[11] = system: Digitaria sanguinalis (DIGSA); test: Test Example 1 pre-emergence herbicidal activity; conditions: rate 250 g/ha, evaluated 20 days later
In short: as §1

[12] = system: Echinochloa crus-galli (ECHCG); test: Test Example 1 pre-emergence herbicidal activity; conditions: rate 250 g/ha, evaluated 20 days later
In short: as §1

winter barley 'Antoniya' = test: Test Example 2 post-emergence crop injury, alone and with cloquintocet-mexyl; conditions: Adigor 0.5%, 2-3 leaf seedlings, assessed 14-21 days after application
Excerpt: (§3) Test compounds were applied post-emergence at 60 g ai/ha, alone and in combination with cloquintocet-mexyl at 60 g ai/ha; the adjuvant Adigor (0.5%) was included for every treatment. The application volume was […]. Target plants were 2-3 leaf seedlings of winter wheat ‘Hereward’ and winter barley ‘Antoniya’ grown in a greenhouse under ambient conditions. Assessments were made at 14-21 days after application.

winter wheat 'Hereward' = test: as above; conditions: Adigor 0.5%, 2-3 leaf seedlings, assessed 14-21 days after application
Excerpt: as §3

[13] = compound 60 g/ha in combination with cloquintocet-mexyl 60 g/ha
[14] = compound 60 g/ha, cloquintocet-mexyl 0 g/ha

## CCc1cc(C)cc(CC)c1C1=C(O)[C@H]2[C@@H](C1=O)[C@@H]1CC[C@H]2O1 [Example T1]
Lolium perenne (LOLPE) [1]
  Post-emergence activity LOLPE (100=total damage to plant; 0=no damage to plant): 80
[2]
  Post-emergence activity ALOMY (100=total damage to plant; 0=no damage to plant): 90
Avena fatua (AVEFA) [3]
  Post-emergence activity AVEFA (100=total damage to plant; 0=no damage to plant): 90
Setaria faberi (SETFA) [4]
  Post-emergence activity SETFA (100=total damage to plant; 0=no damage to plant): 100
[5]
  Post-emergence activity DIGSA (100=total damage to plant; 0=no damage to plant): 100
[6]
  Post-emergence activity ECHCG (100=total damage to plant; 0=no damage to plant): 100
wheat; T1 at 100 g ai/ha
  Wheat Injury (%) 100 g/ha: 83%
wheat; T1 at 200 g ai/ha
  Wheat Injury (%) 200 g/ha: 92%
maize; T1 at 100 g ai/ha
  Maize Injury (%) 100 g/ha: 90%
maize; T1 at 200 g ai/ha
  Maize Injury (%) 200 g/ha: 100%
Lolium perenne (LOLPE) [7]
  Pre-emergence activity LOLPE (100=total damage to plant; 0=no damage to plant): 100
[8]
  Pre-emergence activity ALOMY (100=total damage to plant; 0=no damage to plant): 100
Avena fatua (AVEFA) [9]
  Pre-emergence activity AVEFA (100=total damage to plant; 0=no damage to plant): 100
Setaria faberi (SETFA) [10]
  Pre-emergence activity SETFA (100=total damage to plant; 0=no damage to plant): 100
[11]
  Pre-emergence activity DIGSA (100=total damage to plant; 0=no damage to plant): 100
[12]
  Pre-emergence activity ECHCG (100=total damage to plant; 0=no damage to plant): 100
Winter barley 'Antoniya'; [13]
  Crop Injury (%) Barley: 73%
Winter barley 'Antoniya'; [14]
  Crop Injury (%) Barley: 99%
Winter wheat 'Hereward'; [13]
  Crop Injury (%) Wheat: 18%
Winter wheat 'Hereward'; [14]
  Crop Injury (%) Wheat: 85%

## Cc1cc(C)c(C2=C(O)[C@H]3[C@@H](C2=O)[C@@H]2CC[C@H]3O2)c(C)c1 [Example T3]
Lolium perenne (LOLPE) [1]; 360 h, read-out: Post-emergence activity LOLPE (100=total damage to plant; 0=no damage to plant)
  pest or weed control at 125 g/ha: 60%
[2]; 360 h, read-out: Post-emergence activity ALOMY (100=total damage to plant; 0=no damage to plant)
  pest or weed control at 125 g/ha: 60%
Avena fatua (AVEFA) [3]; 360 h, read-out: Post-emergence activity AVEFA (100=total damage to plant; 0=no damage to plant)
  pest or weed control at 125 g/ha: 30%
Setaria faberi (SETFA) [4]; 360 h, read-out: Post-emergence activity SETFA (100=total damage to plant; 0=no damage to plant)
  pest or weed control at 125 g/ha: 90%
[5]; 360 h, read-out: Post-emergence activity DIGSA (100=total damage to plant; 0=no damage to plant)
  pest or weed control at 125 g/ha: 100%
[6]; 360 h, read-out: Post-emergence activity ECHCG (100=total damage to plant; 0=no damage to plant)
  pest or weed control at 125 g/ha: 100%
Lolium perenne (LOLPE) [7]; Lolium perenne, 480 h, read-out: Pre-emergence activity LOLPE (100=total damage to plant; 0=no damage to plant)
  pest or weed control at 250 g/ha: 100%
[8]; Alopecurus myosuroides, 480 h, read-out: Pre-emergence activity ALOMY (100=total damage to plant; 0=no damage to plant)
  pest or weed control at 250 g/ha: 90%
Avena fatua (AVEFA) [9]; Avena fatua, 480 h, read-out: Pre-emergence activity AVEFA (100=total damage to plant; 0=no damage to plant)
  pest or weed control at 250 g/ha: 80%
Setaria faberi (SETFA) [10]; Setaria faberi, 480 h, read-out: Pre-emergence activity SETFA (100=total damage to plant; 0=no damage to plant)
  pest or weed control at 250 g/ha: 70%
[11]; Digitaria sanguinalis, 480 h, read-out: Pre-emergence activity DIGSA (100=total damage to plant; 0=no damage to plant)
  pest or weed control at 250 g/ha: 80%
[12]; Echinochloa crus-galli, 480 h, read-out: Pre-emergence activity ECHCG (100=total damage to plant; 0=no damage to plant)
  pest or weed control at 250 g/ha: 100%
Winter barley 'Antoniya'; [13]
  Crop Injury (%) Barley: 5%
Winter barley 'Antoniya'; [14]
  Crop Injury (%) Barley: 5%
Winter wheat 'Hereward'; [13]
  Crop Injury (%) Wheat: 0%
Winter wheat 'Hereward'; [14]
  Crop Injury (%) Wheat: 28%
